Tested on: narcotized male cats
Experiment: Antagonism of Hypertensin (angiotensin-II) infusion-induced blood pressure rise in narcotized male cats
Type: in vivo, cat
Procedure: The antagonistic effects of the new compounds of the general formula (I) were investigated on narcotized male cats. After treating the animals with a ganglion blocking agent and bisecting the cervical vagus nerves on both side, an infusion of Hypertensin (CIBA) was given to the animals at a rate of 0.5 μg/kg/min. When the blood pressure of the animals reached a steady, increased level, the substance to be tested was administered either intravenously or subcutaneously in physiological saline solution or as an aqueous solution which also contained a carrier. The blood pressure drop was measured in mm Hg units, and the extent of decrease was expressed in percent related to the value before treatment. The statistical evaluation was performed on the basis of the blood pressure differences, by Student's single sample "t" test. The term "duration of effect" denotes the period elapsed until the observation of the last, still significant (p=5%) blood pressure difference.

[1] = s.c., carboxymethyl cellulose (CMC), dose 50 μg/kg
[2] = s.c., carboxymethyl cellulose (CMC), dose 100 μg/kg
[3] = s.c., physiological saline, dose 50 μg/kg
[4] = s.c., physiological saline, dose 100 μg/kg
[5] = s.c., carboxymethyl cellulose (CMC), dose 200 μg/kg

| SMILES | blood pressure decrease, percent related to the value before treatment (i.v., dose 10 μg/kg) [%] | blood pressure decrease, percent related to the value before treatment (i.v., dose 20 μg/kg) [%] | duration of effect (i.v., dose 20 μg/kg) [min] | blood pressure decrease, percent related to the value before treatment [1] [%] | duration of effect [1] | blood pressure decrease, percent related to the value before treatment [2] [%] | duration of effect [2] [min] | blood pressure decrease, percent related to the value before treatment [3] [%] | duration of effect [3] [min] | blood pressure decrease, percent related to the value before treatment [4] [%] | duration of effect [4] [min] | blood pressure decrease, percent related to the value before treatment (s.c., gelatine, dose 200 μg/kg) [%] | duration of effect (s.c., gelatine, dose 200 μg/kg) | also measured |
| --- | --- | --- | --- | --- | --- | --- | --- | --- | --- | --- | --- | --- | --- | --- |
| CC[C@H](C)[C@H](NC(=O)[C@H](Cc1ccc(O)cc1)NC(=O)[C@@H](NC(=O)[C@H](CCCNC(=N)N)NC(=O)CNC)C(C)C)C(=O)N[C@@H](Cc1c[nH]cn1)C(=O)N1CCC[C@H]1C(=O)N[C@@H](C)C(=O)OC [(Sar^1,Ala--OMe^8)-Ang-II, (sarcosine^1, alanine methyl ester^8)-angiotensin-II] | 18 | 29 | 60 | 11 | 22 min | 18 | 22 | 20 | 45 | 20 | 45 |  |  | duration of effect (i.v., dose 10 μg/kg): 12 min |
| CC[C@H](C)[C@H](NC(=O)[C@H](Cc1ccc(O)cc1)NC(=O)[C@@H](NC(=O)[C@H](CCCNC(=N)N)NC(=O)CNC)C(C)C)C(=O)N[C@@H](Cc1c[nH]cn1)C(=O)N1CCC[C@H]1C(=O)N[C@H](C(=O)OC)[C@@H](C)CC [(Sar^1,Ile--OMe^8)-Ang-II, (sarcosine^1, isoleucine methyl ester^8)angiotensin-II] |  | 21 | 25 | 9 | .phi. | 17 | 200 | 8 | 180 | 25 | 240 | 23 | 300 min | blood pressure decrease, percent related to the value before treatment (i.v., dose 40 μg/kg): 20%; duration of effect (i.v., dose 40 μg/kg): 38 min; blood pressure decrease, percent related to the value before treatment (s.c., gelatine, dose 100 μg/kg): 5%; duration of effect (s.c., gelatine, dose 100 μg/kg): 15 min |
| CC[C@H](C)[C@H](NC(=O)[C@H](Cc1ccc(O)cc1)NC(=O)[C@@H](NC(=O)[C@H](CCCNC(=N)N)NC(=O)CNC)C(C)C)C(=O)N[C@@H](Cc1c[nH]cn1)C(=O)N1CCC[C@H]1C(=O)N[C@H](C(=O)OC)[C@@H](C)OC [(Sar^1,Thr/Me/--OMe^8)-Ang-II, (sarcosine^1, threonine/Me/methyl ester^8)-angiotensin-II] |  | 12 | 12 |  |  |  |  |  |  | 27 | 45 |  |  |  |
| CNCC(=O)N[C@@H](CCCN=C(N)N)C(=O)N[C@H](C(=O)N[C@@H](Cc1ccc(O)cc1)C(=O)N[C@H](C(=O)N[C@@H](Cc1cnc[nH]1)C(=O)N1CCC[C@H]1C(=O)N[C@@H](C)C(=O)O)C(C)C)C(C)C [Saralasin, (Sar^1, Ala^8)-angiotensin-II, reference compound] | 32 |  |  |  |  | 23 | 45 |  |  | 29 |  | 23 | .phi. | blood pressure decrease, percent related to the value before treatment [5]: 28%; duration of effect [5]: 90 min; blood pressure decrease, percent related to the value before treatment (s.c., physiological saline, dose 200 μg/kg): 24% |
